Results taken from US20220226372A1 (priority 2019, published 2022).
Entries after “also recorded” stand apart in the source; their conditions may differ. Like-named read-outs stand apart in the source and are kept apart here.

Columns and labels:
HL60 cells [1] = type: cell-based, Human
HL60 cells [2] = type: cell-based, Human; remark: listed apart in the source
[3] = test system: C57BL6 mice splenic cells; type: cell-based, mouse
HL60 cells [4] = type: cell-based, Human; remark: listed apart in the source
A20 cells [5] = test: A20 cell viability; type: cell-based, mouse; settings: 48 h; for Effect on A20 viability vs control: H2O2 experiment
Experimental: (§1) Cells (1×10^5 per well) were seeded in 96-wells round bottom plates (Falcon, Corning, reference: 353077) and incubated for 48 hours with different experimental conditions in an incubator at 37° C. 5% CO2. Two plates were prepared in parallel to measure respectively the H2O2 production and A20 cell viability.
(§2) H2O2 production, GSH production and cell viability were measured using the same protocols as above-described for […].
(§3) Conditions of Treatments and Related Experimentations: 1 Test H2O2— 1 Test GSH • H2O2 or GSH production and cell survival: As2O3 (1 μM) with CuCl2 at 0.5; 1; 2 and 4 μM.

BALB/c mice = test: Copper cytotoxicity assessment in mice; type: in vivo, mouse; settings: copper 0.2 and 0.5 μg/g, 5 times a week for 5 weeks
Experimental: To this aim, we injected a lower dose of copper (0.2 and 0.5 μg/g) 5 times a week for 5 weeks to a new series of BALB/c mice. We observed the mice every day, monitored their weight and followed their survival to evaluate copper toxicity.

[6] = test system: chronic sclerodermatous Graft versus Host Disease
A20 cells [7] = test: H2O2 production in A20 cultured cells; type: cell-based, mouse; settings: 48 h, As2O3 at 1 μM, test 1
Experimental: as §1, §2, §3

A20 cells [8] = test: GSH production in A20 cultured cells; type: cell-based, mouse; settings: 48 h, As2O3 at 1 μM, test 1
Experimental: as §1, §2, §3

MRL/lpr mice = settings: Bobé et al., Blood 2006; cited from earlier work
caspase-1 = biological target: T1, caspase-1 (Homo sapiens, UniProt P29466); settings: Maier et al., J. Immunol. 2014; cited from earlier work
T1 sequence (P29466 120-404): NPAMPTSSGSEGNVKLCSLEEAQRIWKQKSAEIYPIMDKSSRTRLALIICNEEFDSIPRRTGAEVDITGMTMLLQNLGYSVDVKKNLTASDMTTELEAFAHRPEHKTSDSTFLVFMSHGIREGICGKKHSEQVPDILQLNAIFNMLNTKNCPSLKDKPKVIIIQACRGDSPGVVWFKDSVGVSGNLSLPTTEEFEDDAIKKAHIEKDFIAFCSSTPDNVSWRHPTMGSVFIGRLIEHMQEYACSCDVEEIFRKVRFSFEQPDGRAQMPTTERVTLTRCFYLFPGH

Treg and T17 balance = settings: rheumatoid arthritis patients; Li et al. 2019; cited from earlier work
[9] = Allogeneic + As2O3 2.5 μg/g, 9 mice
[10] = Allogeneic + As2O3 5 μg/g, 5 mice

Question: Which “H2O2 Production: As2O3 + cations vs As2O3” value (HL60 cells [1]) does the source give for `[Cl-].[Cl-].[Zn+2]` [ZnCl2] here?
Answer: Its value is “Not significant”.

Question: What about the “Cell survival: As2O3 + cations vs As2O3” value (HL60 cells [2]) of the same compound?
Answer: The value was “no significant and reproducible effect; also recorded: Not significant”.

Question: And the “Cell survival: cations vs control” value (HL60 cells [2])?
Answer: The value was “Not significant”.

Question: With `O=S(=O)([O-])[O-].[Zn+2]` [ZnSO4] as the compound, how does the “Cell survival: As2O3 + cations vs As2O3” value (HL60 cells [2]) read?
Answer: Its value is “no significant and reproducible effect; also recorded: Not significant”.

Question: Which “Cell survival: As2O3 + cations vs As2O3” value (HL60 cells [2]) does the source give for `O=S(=O)([O-])[O-].[Fe+2]` [FeSO4] here?
Answer: Its value is “no significant effect; also recorded: Not significant”.

Question: What about the “Cell survival: cations vs control” value (HL60 cells [2]) of the same compound?
Answer: Its value is “no significant effect; also recorded: Not significant”.

Question: What about the “Cell proliferation: As2O3 + cations vs As2O3” value (“Cell proliferation … vs As2O3” for short) [3] of the same compound?
Answer: The value was “does not have a significant effect”.

Question: Which “Effect of AsI3 on H2O2 production: AsI3 + CuCl2 vs AsI3” value (HL60 cells [1]) does the source give for `[Cl][Cu][Cl]` [CuCl2, copper(II) chloride] here?
Answer: The value was “significantly increased”.

Question: What about the “Effect on the H2O2 production induced by As2O3” value (HL60 cells [1]) of the same compound?
Answer: The value was “significantly increases”.

Question: What about the “H2O2 Production: cations vs control” value (HL60 cells [1]) of the same compound?
Answer: Its value is “no significant effect; also recorded: Not significant”.

Question: And the “Effect on the GSH production induced by As2O3” value (HL60 cells [4])?
Answer: Its value is “reduce”.

Question: What about the “GSH Production: cations vs control” value (HL60 cells [4]) of the same compound?
Answer: The value was “no significant effect; also recorded: Not significant”.

Question: And the “Cell survival in presence of AsI3” value (HL60 cells [2])?
Answer: Its value is “no effect”.

Question: What about the “Cell survival: cations vs control” value (HL60 cells [2]; HL60 cells, 48 h (GSH experiment, Example 4), concentration(s) giving a significant difference, tests 1 and 2) of the same compound?
Answer: The value was “no significant effect; also recorded: Not significant”.

Question: What about the “Cell survival: cations vs control” value (HL60 cells [2]; HL60 cells, 48 h (H2O2 experiment), cation concentration(s) giving a statistically significant difference, tests 1 and 2) of the same compound?
Answer: Its value is “no real effect; also recorded: Not significant”.

Question: What about the “Cell survival: As2O3 + cations vs As2O3” value (HL60 cells [2]; HL60 cells, 48 h, As2O3 1 μM (GSH experiment, Example 4), concentration(s) giving a significant difference, tests 1 and 2) of the same compound?
Answer: The value was “no significant effect; also recorded: Not significant”.

Question: What about the “Cell survival: As2O3 + cations vs As2O3” value (HL60 cells [2]; HL60 cells, 48 h, As2O3 1 μM (H2O2 experiment), cation concentration(s) giving a statistically significant difference, tests 1 and 2) of the same compound?
Answer: The value was “no real effect; also recorded: Not significant”.

Question: And the “Effect on HL60 survival in the presence of As2O3” value (HL60 cells [2]; HL60 cells, 48 h, CuCl2 at 1 and 4 μM with As2O3 0.1-10 μM)?
Answer: The value was “no additional nor protective effect”.

Question: And the “Cell survival: As2O3 + cations vs As2O3” value (A20 cells [5]; As2O3 1 μM (GSH experiment), CuCl2 concentration(s) giving a significant increase of viability, 1 test)?
Answer: Its value is 4 µM.

Question: What about the “Cell proliferation … vs As2O3” value ([3]; MLR, 48 h, As2O3 1 μM, cation concentration(s) giving a significant decrease of proliferation, test 1) of the same compound?
Answer: Its value is 4 μM (test 1).

Question: And the “Cell proliferation … vs As2O3” value ([3]; MLR, 48 h, As2O3 1 μM, cation concentration(s) giving a significant decrease of proliferation, tests 1 and 2)?
Answer: The value was 4 μM or 2 and 4.

Question: And the “Proliferation of C57BL6 spleen cells in the presence of AsI3: CuCl2 concentrations with significant decrease” value ([3]; MLR, 48 h, AsI3 1 μM, test 2)?
Answer: The value was 4 µM.

Question: And the “Death after 5 weeks” value (BALB/c mice)?
Answer: Its value is “no death”.

Question: What about the “Mean weights vs control group receiving PBS” value (BALB/c mice) of the same compound?
Answer: Its value is “similar”.

Question: What about the “Mortality in the copper-treated groups” value ([6]; copper 2.5 or 10 μg/g i.p. 5 times a week, injections stopped at the end of day 4) of the same compound?
Answer: Its value is “significant loss of mice”.

Question: And the “Mortality in the copper-treated groups” value ([6]; copper injected only twice a week from day 8 until the end of the 5 weeks)?
Answer: Its value is “no more copper-treated mice died”.

Question: For Arsenic Trioxide [As2O3], which “Effect on the production of H2O2” value (HL60 cells [1]) is on record?
Answer: The value was “not significant, but it increases at 5 μM”.

Question: What about the “Effect on GSH production vs control” value (HL60 cells [4]) of the same compound?
Answer: Its value is “significantly increases”.

Question: And the “Effect on H2O2 production vs control” value (A20 cells [7])?
Answer: The value was “significantly increased”.

Question: And the “Effect on GSH production vs control” value (A20 cells [8])?
Answer: Its value is “significantly increased”.

Question: What about the “Effect on A20 cells viability vs control” value (A20 cells [5]; As2O3 at 1 μM, GSH experiment, test 1) of the same compound?
Answer: The value was “significantly reduced”.

Question: What about the “Effect on A20 viability vs control” value (A20 cells [5]; As2O3 at 1 μM, test 1) of the same compound?
Answer: The value was “reduced”.

Question: What about the “Effect on A20 viability vs control” value (A20 cells [5]; As2O3 at 1 μM, test 2) of the same compound?
Answer: The value was “significantly reduced”.

Question: And the “Cell proliferation in the presence of mitogen” value [3]?
Answer: The value was “completely inhibits”.

Question: What about the “Number of mice at the end (live mice)” value ([6]; Allogeneic + As2O3 2.5 μg/g i.p. 5 times a week for 5 weeks, 10 mice at the beginning) of the same compound?
Answer: The value was 9.

Question: What about the “Ear thickness (vasculitis)” value ([6]; Allogeneic + As2O3 2.5 μg/g vs allogeneic) of the same compound?
Answer: Its value is “reduced”.

Question: And the “Number of mice with alopecia” value [6, 9]?
Answer: The value was 3.

Question: And the “Percentage of mice with alopecia” value [6, 9]?
Answer: Its value is 33%.

Question: What about the “Number of mice at the end (live mice)” value ([6]; Allogeneic + As2O3 5 μg/g i.p. 5 times a week for 5 weeks, 7 mice at the beginning) of the same compound?
Answer: Its value is 5.

Question: And the “Ear thickness (vasculitis)” value ([6]; Allogeneic + As2O3 5 μg/g vs allogeneic)?
Answer: Its value is “decreased even more until reaching the same values as the ones of the syngeneic group”.

Question: And the “Number of mice with alopecia” value [6, 10]?
Answer: The value was 1.

Question: And the “Percentage of mice with alopecia” value [6, 10]?
Answer: Its value is 20%.

Question: What about the “Survival of MRL/lpr mice” value (MRL/lpr mice) of the same compound?
Answer: The value was “significantly prolonged”.

Question: And the “Inhibition of caspase-1 and the innate immune response” value (caspase-1)?
Answer: Its value is “potent inhibitors”.

Question: What about the “Treg and T17 balance” value (Treg and T17 balance) of the same compound?
Answer: The value was “improves”.

Question: Which results are given for `O=S(=O)([O-])[O-].[Mn+2]` [MnSO4]?
Answer: H2O2 Production: As2O3 + cations vs As2O3 (HL60 cells [1]): 0.25 µM; Cell survival: As2O3 + cations vs As2O3 (HL60 cells [2]): no real effect; also recorded: Not significant

Question: For `[Cl][Mn][Cl]` [MnCl2], which “H2O2 Production: As2O3 + cations vs As2O3” value (HL60 cells [1]) is on record?
Answer: The value was 1 µM.

Question: What about the “H2O2 Production: cations vs control” value (HL60 cells [1]) of the same compound?
Answer: The value was 1 µM.

Question: What about the “Cell survival: As2O3 + cations vs As2O3” value (HL60 cells [2]) of the same compound?
Answer: The value was “Not significant”.

Question: What about the “Cell survival: cations vs control” value (HL60 cells [2]) of the same compound?
Answer: The value was “Not significant”.
